Results reported in PMC11939361, “diAcCA, a Pro-Drug for Carnosic Acid That Activates the Nrf2 Transcriptional Pathway, Shows Efficacy in the 5xFAD Transgenic Mouse Model of Alzheimer’s Disease” (Antioxidants, 2025).
Several values for one entry are separate records, joined by “and”; a condition that tells them apart may be missing. Equal entries are not always repeated. Entries after “also recorded” stand apart in the source; their conditions may differ. Where two headings read alike, the source gives them in different places.

Tests used:
[1] = cited from earlier work
in vivo = conditions: for AUC(0-inf): AUCINF_obs; for AUC(0-t): AUClast
Protocol: (§1) We tested both CA and diAcCA compounds by oral gavage/PO at 10 mg/kg. Analysis was performed by LC-MS in the Scripps Florida Drug Development Core (Jupiter, FL, USA). The compounds were formulated in olive oil. CA went into the oil with minimal stirring, but diAcCA required longer stirring. Blood was collected in hematocrit tubes and centrifuged. […] Drug is therefore likely absorbed via enterocyte passage and through chylomicron absorbance, complicating the early time points of the PK curves.
(§2) Therefore, we decided to pre-weigh the CA into a vial and, in the vivarium, rapidly dissolve the compound in DMSO and then add Tween80/saline. The compound was dosed within five minutes of being dissolved, and the final concentrations were 5% DMSO and 95% of a 5% Tween80 solution in saline. […] Oral clearance calculations assume 100% bioavailability.
(§3) We also determined the stability and bioavailability of diAcCA compared to CA. For this purpose, individual mice were administered CA or diAcCA IV or via oral gavage/PO. For CA, the doses were 3 mg/kg for the IV route and 10 mg/kg for oral gavage/PO, and for diAcCA 10 mg/kg by oral gavage/PO.

[2] = in vivo; for AUC%Extrap: mouse
Protocol: as §1, §2, §3

[3] = Shelf life / stability of the compound over time; assay type: physicochemical; conditions: storage (CA: even if kept in the dark and cold)
[4] = system: hiPSC-derived microglia (hiMG); assay: hiMG transplanted into humanized mouse brain, inflammatory markers; assay type: in vivo, human
Protocol: The next day, immunostaining was performed on brain sections after 3 washes in PBS and incubation in the appropriate secondary antibody solution on a shaker for 2 h at room temperature. Secondary antibodies included Alexa 488 (A11008, 1:500, goat anti-rabbit, Life Technologies, Carlsbad, CA, USA) and Alexa 555 (A21424, 1:500, goat anti-mouse, Life Technologies). The sections were again washed with PBS 3 times, mounted on Superfrost plus slides (12-550-15, Fisher Scientific, Waltham, MA, USA) and dried at room temperature. […] For each brain, 3–6 images were acquired for each individual marker using a confocal fluorescence microscope (Nikon Eclipse Ti2) (Figure 1, Figure 2 and Figure 3, Supplementary Figure S1). Post image processing, quantification was performed using Fiji ImageJ (1.54f). For the Iba1-stained slides, a mask was made of cells co-labeled for HuNu and Iba1, and then caspase 1 staining was measured. […] For quantification, NeuN, Synapsin I, and GFAP staining were compared between groups by mean fluorescence intensity (MFI), Iba1 and caspase-1 staining was compared by integrated density (ID), Aβ and pTau staining were compared by % area of plaques/aggregates, as previously described. […]

[5] = cited from earlier work; remark: listed apart in the source
[6] = male, C57Bl/6, mouse, po, 10 mg/kg
[7] = mouse, po, 10 mg/kg, Plasma concentration of carnosic acid

## CC(C)c1cc2c(c(O)c1O)[C@@]1(C(=O)O)CCCC(C)(C)[C@@H]1CC2 [CA, carnosic acid]
[1]; PO and IV routes
  brain levels as share of the plasma level at peak values: approximately 10%
[1]
  CA concentration in the brain, which is neuroprotective: 1 to 2 µM
  CA plasma concentration that produces the neuroprotective brain level: 10 to 20 µM
In vivo; male, C57Bl/6, mouse, iv, 3 mg/kg
  AUC(0-inf): 15000 ng·h/mL
In vivo; male, C57Bl/6, mouse, iv, 3 mg/kg, Cl_obs
  clearance: 3.3 mL/min/kg
In vivo; male, C57Bl/6, mouse, iv, 3 mg/kg, MRTINF_obs
  MRT inf: 5.46 h
In vivo; male, C57Bl/6, mouse, iv, 3 mg/kg, T1/2
  half-life: 13 h
In vivo; [6]
  AUC(0-inf): 10700 ng·h/mL
In vivo; male, C57Bl/6, mouse, po, 10 mg/kg, F%
  bioavailability: 16%
In vivo; male, C57Bl/6, mouse, po, 10 mg/kg, T1/2
  half-life: 19.9 h
In vivo; mouse, iv, 3 mg/kg
  AUC(0-inf): 20100 ng·h/mL
  AUC(0-t): 59.5 µM·h
  Tmax: 0.14 h
In vivo; mouse, iv, 3 mg/kg, t1/2
  half-life: 11.9 h
In vivo; mouse, iv, 5 mg/kg, mean Cmax of CA in plasma
  Cmax: 98.5 µM
In vivo; mouse, iv, average half-life
  half-life: 11.9 h
In vivo; mouse, iv, half-life
  half-life: ~12 h
In vivo; mouse, po, 10 mg/kg
  AUC(0-inf): 9710 ng·h/mL
  AUC(0-t): 28 µM·h
  Tmax: 1.5 h
In vivo; mouse, po, 10 mg/kg, Cmax of CA in plasma
  Cmax: 4.45 µM
In vivo; [7]
  concentration at 480 min: 1 µM and 332 ng/mL
  concentration at 4320 min: 64.4 nM and 21.4 ng/mL
In vivo; mouse, po, 10 mg/kg, average half-life
  half-life: 16.3 h
In vivo; mouse, po, 10 mg/kg, mean Cmax of CA
  Cmax: 4.45 µM
In vivo; mouse, po, 10 mg/kg, t1/2
  half-life: 16.3 h
[2]; C57Bl/6, mouse, po, 6 h
  Calculated Concentration of carnosic acid in plasma: 618 ng/mL
[2]; [6]
  CL*F: 2.7
[2]; iv, 3 mg/kg
  AUC%Extrap: 1.77%
[2]; po, 10 mg/kg
  AUC%Extrap: 4.13%
[3]
  shelf life / stability over time: shelf life of only a couple of months
[4]; hiMG activated by α-synuclein/Aβ aggregates with or without cognate antibodies, pretreated with CA (2 µM), 2 weeks after transplantation
  inflammatory response (Iba1 and caspase-1 expression) of transplanted hiMG: significantly prevented this inflammatory reaction; also recorded: prevented this effect
[4]; response to α-synuclein/Aβ aggregates in the presence of CA (2 µM), p = 0.0307
  cleaved/activated caspase-1 integrated density (ID): significant decrease
[5]
  LD50: 7100 mg/kg
